Results published in US20240034729A9, “HETEROCYCLIC COMPOUND, INTERMEDIATE, PREPARATION METHOD THEREFOR AND APPLICATION THEREOF” (WUHAN LL SCIENCE AND TECHNOLOGY DEVELOPMENT CO., LTD., priority 2018, published 2024).
Where two headings read alike, the source gives them in different places.

Tests used:
[1] = biological target: hP2X2/3 (heterodimeric receptors formed by human purinergic P2X receptors subtype 2 and subtype 3) (Homo sapiens (Human), UniProt P56373+Q9UBL9); test: FLIPR calcium assay, hP2X2/3 expressed in HEK293 cells (P2X2/3 receptor selectivity); type: cell-based; settings: for IC50: HEK293 cells expressing hP2X2/3, agonist BZ-ATP 5 μM, unit inferred
[2] = biological target: hP2X3 (human purinergic P2X receptor subtype 3) (Homo sapiens (Human), UniProt P56373); test: FLIPR calcium assay, hP2X3 expressed in HEK293 cells; type: cell-based; settings: read-out: P2X3 IC50
[3] = HEK293 cells expressing hP2X3, agonist BZ-ATP 2.5 μM, class symbols

hP2X2/3 (heterodimeric receptors formed by human purinergic P2X receptors subtype 2 and subtype 3), sequence (P56373 whole entry): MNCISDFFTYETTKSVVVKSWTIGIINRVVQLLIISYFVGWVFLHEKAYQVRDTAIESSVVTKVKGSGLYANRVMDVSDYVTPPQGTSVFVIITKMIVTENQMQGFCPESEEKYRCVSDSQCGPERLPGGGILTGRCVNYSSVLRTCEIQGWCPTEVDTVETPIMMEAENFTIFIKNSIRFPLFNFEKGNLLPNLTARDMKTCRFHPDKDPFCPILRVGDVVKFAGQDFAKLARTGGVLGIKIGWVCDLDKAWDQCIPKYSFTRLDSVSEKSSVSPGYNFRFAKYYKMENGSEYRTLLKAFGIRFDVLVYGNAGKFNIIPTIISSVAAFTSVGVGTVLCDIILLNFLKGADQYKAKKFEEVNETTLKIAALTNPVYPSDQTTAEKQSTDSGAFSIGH
hP2X2/3 (heterodimeric receptors formed by human purinergic P2X receptors subtype 2 and subtype 3), sequence (Q9UBL9 whole entry): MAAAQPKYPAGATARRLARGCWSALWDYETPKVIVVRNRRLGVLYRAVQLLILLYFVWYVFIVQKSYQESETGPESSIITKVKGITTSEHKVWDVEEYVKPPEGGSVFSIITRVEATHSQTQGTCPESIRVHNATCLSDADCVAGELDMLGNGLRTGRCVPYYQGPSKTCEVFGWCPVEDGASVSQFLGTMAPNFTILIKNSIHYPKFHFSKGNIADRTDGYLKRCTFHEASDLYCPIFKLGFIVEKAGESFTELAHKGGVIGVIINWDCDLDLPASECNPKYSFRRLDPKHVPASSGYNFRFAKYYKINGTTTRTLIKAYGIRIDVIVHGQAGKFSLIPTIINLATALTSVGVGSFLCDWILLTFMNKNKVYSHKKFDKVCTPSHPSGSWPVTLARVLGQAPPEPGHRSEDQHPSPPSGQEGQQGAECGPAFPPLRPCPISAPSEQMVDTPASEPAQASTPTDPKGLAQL
hP2X3 (human purinergic P2X receptor subtype 3), sequence (P56373 whole entry): as the sequence (P56373 whole entry) above

Compound | IC50 [2] | also measured
COC(=O)N1CCO[C@@H](Cc2c(-c3c(F)cc(-c4ccc(C#N)[nH]4)cc3F)nc3cc(C)ccn23)C1 [Compound 138, methyl (S)-2-((2-(2,6-difluoro-4-(5-cyano-1H-pyrrol-2-yl)phenyl)-7-methylimidazo[1,2-a]pyridin-3-yl)methyl)morpholine-4-carboxylate] | < 10 nM | Folds of selectivity [1]: A (key: A: folds of selectivity >1000; B: 200< folds of selectivity ≤1000; C: folds of selectivity ≤200); IC50 [1]: > 60000 nM
CNC(=O)c1cc(F)c(-c2oc3cc(C)cnc3c2C[C@H]2CN(C(=O)OC)CCO2)c(F)c1 [Compound 54, methyl (S)-2-((2-(2,6-difluoro-4-(methylcarbamoyl)phenyl)-6-methylfurano[3,2-b]pyridin-3-yl)methyl)morpholine-4-carboxylate] | < 10 nM | Folds of selectivity [1]: A (key: A: folds of selectivity >1000; B: 200< folds of selectivity ≤1000; C: folds of selectivity ≤200); IC50 [1]: > 60000 nM
COC(=O)N1CCO[C@@H](Cc2c(-c3c(F)cc(-n4cnnn4)cc3F)nc3cc(C)ccn23)C1 [Compound 58] | – | Folds of selectivity [1]: A (key: A: folds of selectivity >1000; B: 200< folds of selectivity ≤1000; C: folds of selectivity ≤200); IC50 [1]: > 60000 nM
CNC(=O)c1cc(F)c(-c2nc3cc(C)ncn3c2C[C@H]2CN(C(=O)OC)CCO2)c(F)c1 [Compound 42, methyl (S)-2-((2-(2,6-difluoro-4-(methylcarbamoyl)phenyl)-7-methylimidazo[1,2-c]pyrimidin-3-yl)methyl)morpholine-4-carboxylate] | < 10 nM | –
CNC(=O)c1cc(F)c(-c2nc3cc(C)ccn3c2CN2CCN(C(=O)OC)CC2)c(F)c1 [Compound 32] | – | IC50 [2, 3]: 200 to 5000 nM
COC(=O)N1CCO[C@@H](Cc2c(-c3c(F)cc(NC4CC(=O)C4)cc3F)nc3cc(C)ccn23)C1 [Compound 78] | 10 to 50 nM | –
COC(=O)N1CCO[C@@H](Cc2c(-c3c(F)cc(NC(=O)CC(C)C(N)=O)cc3F)nc3cc(C)ccn23)C1 (stereo partly drawn) [Compound 170] | 50 to 200 nM | –
CNC(=O)c1cc(F)c(-c2oc3nc(C)ccc3c2C[C@H]2CN(C(=O)OC)CCO2)c(F)c1 [Compound 56, methyl (S)-2-((2-(2,6-difluoro-4-(methylcarbamoyl)phenyl)-6-methylfurano[2,3-b]pyridin-3-yl)methyl)morpholine-4-carboxylate] | < 10 nM | –
CNC(=O)c1ccc(-c2nc3cc(C)ccn3c2C[C@H]2CN(C(=O)OC)CCO2)s1 [Compound 21, methyl (S)-2-((7-methyl-2-(5-(methylcarbamoyl)thiophen-2-yl)imidazo[1,2-a]pyridin-3-yl)methyl)morpholine-4-carboxylate] | – | IC50 [2, 3]: 200 to 5000 nM
CNC(=O)c1cc(F)c(-c2nc3cc(C)ccn3c2CN2CCNCC2=O)c(F)c1 [Compound 48, (S)-2-((2-(2,6-difluoro-4-(methylcarbamoyl)phenyl)-7-methylimidazo[1,2-a]pyridin-3-yl)methyl)-2-carbonyl-piperazine] | 50 to 200 nM | –
COC(=O)N1CCO[C@@H](Cc2c(-c3c(F)cc(NC(=O)C#CC(=O)O)cc3F)nc3cc(C)ccn23)C1 [Compound 88] | 10 to 50 nM | –
CNC(=O)c1cc(F)c(-c2nc3cc(C)ccn3c2CC(N)=O)c(F)c1 [Compound 19, 4-(3-(2-amino-2-oxoethyl)-7-methylimidazo[1,2-a]pyridine)-3,5-difluorobenzoylmethylamine] | – | IC50 [2, 3]: 200 to 5000 nM
COC(=O)N1CCO[C@@H](Cc2c(-c3c(F)cc(NS(C)(=O)=O)cc3F)nc3cc(C)ccn23)C1 [Compound 152] | < 10 nM | –
COC(=O)N1CCO[C@@H](Cc2c(-c3c(F)cc(NC(=O)CC4(C(=O)O)CC4)cc3F)nc3cc(C)ccn23)C1 [Compound 95] | 10 to 50 nM | –
COC(=O)N1CCO[C@@H](Cc2c(-c3c(F)cc(-n4ccnc4)cc3F)nc3cc(F)ccn23)C1 [Compound 132] | < 10 nM | –
CCC(=O)N1CCO[C@@H](Cc2c(-c3c(F)cc(NC(C)=O)cc3F)nc3cc(C(F)F)ccn23)C1 [Compound 157] | < 10 nM | –
COC(=O)N1CCO[C@@H](Cc2c(-c3c(F)cc(NC(=O)CC(C)(C)C(=O)O)cc3F)nc3cc(C)ccn23)C1 [Compound 91] | < 10 nM | –
CCC(=O)N1CCO[C@@H](Cc2c(-c3c(F)cc(-c4ccc(C#N)s4)cc3F)nc3cc(C)ccn23)C1 [Compound 140, (S)-5-(3,5-difluoro-4-(7-methyl-3-((4-propionylmorpholin-2-yl)methyl)imidazo[1,2-a]pyridin-2-yl)phenyl)thiophene-2-carbonitrile] | 50 to 200 nM | –
COC(=O)N1CCO[C@@H](Cc2c(-c3c(F)cc(N4CCN(C)CC4=O)cc3F)nc3cc(C)ccn23)C1 [Compound 45, methyl (S)-2-((2-(2,6-difluoro-4-(4-methyl-2-oxopiperazin-1-yl)phenyl)-7-methylimidazo[1,2-a]pyridin-3-yl)methyl) morpholine-4-carboxylate] | – | IC50 [2, 3]: 200 to 5000 nM
COC(=O)N1CCO[C@@H](Cc2c(-c3c(F)cc(NC(C)=O)cc3F)nc3cc(CF)ccn23)C1 [Compound 150, methyl (S)-2-((2-(4-acetamido-2,6-difluorophenyl)-7-(fluoromethyl)imidazo[1,2-a]pyridin-3-yl)methyl)morpholine-4-carboxylate] | < 10 nM | –

Compound | IC50 [2] | also measured
COC(=O)N1CCO[C@@H](Cc2c(-c3c(F)cc(O)cc3F)nc3cc(C)ccn23)C1 [Compound 35, methyl (S)-2-((2-(2,6-difluoro-4-hydroxyphenyl)-7-methylimidazo[1,2-a]pyridin-3-yl)methyl)morpholine-4-carboxylate] | – | IC50 [2, 3]: 200 to 5000 nM
CNC(=N)c1cc(F)c(-c2nc3cc(C)ccn3c2C[C@H]2CN(C(=O)OC)CCO2)c(F)c1 [Compound 8, methyl (S)-2-((2-(2,6-difluoro-4-(N-methylcarbamimidoyl)phenyl)-7-methylimidazo[1,2-a]pyridin-3-yl)methyl)morpholine-4-carboxylate] | – | IC50 [2, 3]: 200 to 5000 nM
CNC(=O)Cc1cc(F)c(-c2nc3cc(C)ccn3c2C[C@H]2CN(C(=O)OC)CCO2)c(F)c1 [Compound 64, methyl (S)-2-((2-(4-(2-(methylamino)-2-oxoethyl)-2,6-difluorophenyl)-7-methylimidazo[1,2-a]pyridin-3-yl)methyl) morpholine-4-carboxylate] | 50 to 200 nM | –
CCC(=O)N1CCO[C@@H](Cc2c(-c3c(F)cc(-c4nc(C#N)co4)cc3F)nc3cc(C)ccn23)C1 [Compound 121] | – | IC50 [2, 3]: 200 to 5000 nM
COC(=O)N1CCO[C@@H](Cc2c(-c3c(F)cc(-c4ccon4)cc3F)nc3cc(C)ccn23)C1 [Compound 16, methyl (S)-2-((2-(2,6-difluoro-4-(isoxazol-3-yl)phenyl)-7-methylimidazo[1,2-a]pyridin-3-yl)methyl)morpholine-4-carboxylate] | 10 to 50 nM | –
COC(=O)N1CCO[C@@H](Cc2c(-c3c(F)cc(N4C=CCC4=O)cc3F)nc3cc(C)ccn23)C1 [Compound 100] | 10 to 50 nM | –
COC(=O)N1CCO[C@@H](Cc2c(-c3c(F)cc(-n4ccoc4=O)cc3F)nc3cc(C)ccn23)C1 [Compound 99] | 10 to 50 nM | –
COC(=O)N1CCO[C@@H](Cc2c(-c3c(F)cc(-n4cncn4)cc3F)nc3cc(C)ccn23)C1 [Compound 142, methyl (S)-2-((2-(2,6-difluoro-4-(1H-1,2,4-triazol-1-yl)phenyl)-7-methylimidazo[1,2-a]pyridin-3-yl)methyl)morpholine-4-carboxylate] | < 10 nM | –
COC(=O)N1CCO[C@@H](Cc2c(-c3c(F)cc(S(N)(=O)=O)cc3Cl)nc3cc(Cl)ccn23)C1 [Compound 179, methyl (S)-2-((7-chloro-2-(2-chloro-6-fluoro-4-sulfamoylphenyl)imidazo[1,2-a]pyridin-3-yl)methyl)morpholine-4-carboxylate] | 0.4 nM | –
COC(=O)N1CCO[C@@H](Cc2c(-c3c(F)cc(-c4nc(C(=O)O)co4)cc3F)nc3cc(C)ccn23)C1 [Compound 114, (S)-2-(3,5-difluoro-4-(3-((4-(methoxycarbonyl)morpholin-2-yl)methyl)-7-methylimidazo[1,2-a]pyridin-2-yl)phenyl)oxazole-4-carboxylic acid] | 10 to 50 nM | –
COC(=O)N1CCO[C@@H](Cc2c(-c3c(F)cc(Nc4ccc(F)o4)cc3F)nc3cc(C)ccn23)C1 [Compound 73] | 50 to 200 nM | –
COC(=O)N1CCO[C@@H](Cc2c(-c3ccc(S(N)(=O)=O)nc3Cl)nc3cc(C)ccn23)C1 [Compound 190] | < 10 nM | –
COC(=O)N1CCO[C@@H](Cc2c(-c3c(F)cc(NC(=O)CC4(C#N)CC4)cc3F)nc3cc(C)ccn23)C1 [Compound 96] | 10 to 50 nM | –
COC(=O)N1CCO[C@@H](Cc2c(-c3c(F)cc(-n4ccc(S(N)(=O)=O)c4)cc3F)nc3cc(C)ccn23)C1 [Compound 134, methyl (S) 2-((2-(2,6-difluoro-4-(3-sulfamoyl-1H-pyrrol-1-yl)phenyl)-7-methylimidazo[1,2-a]pyridin-3-yl)methyl)morpholine-4-carboxylate] | 10 to 50 nM | –
CNC(=O)c1c[nH]c(-c2nc3cc(C)ccn3c2C[C@H]2CN(C(=O)OC)CCO2)c1F [Compound 24] | – | IC50 [2, 3]: 200 to 5000 nM
COC(=O)N1CCO[C@@H](Cc2c(-c3c(F)cc(NCCCC(N)=O)cc3F)nc3cc(C)ccn23)C1 [Compound 77] | < 10 nM | –
COC(=O)N1CCO[C@@H](Cc2c(-c3c(F)cc(-c4nc(C#N)c[nH]4)cc3F)nc3cc(F)ccn23)C1 [Compound 106] | 10 to 50 nM | –
COC(=O)N1CCO[C@@H](Cc2c(-c3c(F)cc(-n4ccc(C5(C(=O)O)CC5)n4)cc3F)nc3cc(C)ccn23)C1 [Compound 130, (S)-1-(1-(3,5-difluoro-4-(3-((4-(carbomethoxy<methoxycarbonyl>)morpholin-2-yl)methyl)-7-methylimidazo[1,2-a]pyridin-2-yl)phenyl)-1H-pyrazol-3-yl)cyclopropane-1-carboxylic acid] | – | IC50 [2, 3]: 200 to 5000 nM
COC(=O)N1CCO[C@@H](Cc2c(-c3c(F)cc(NC(=O)CC(C)(C)O)cc3F)nc3cc(C)ccn23)C1 [Compound 90] | 10 to 50 nM | –
Cc1ccn2c(Cc3cc(C#N)ccn3)c(-c3c(F)cc(S(N)(=O)=O)cc3F)nc2c1 [Compound 186] | 65 nM | –
